Our source for the IC50 values is patent US20230116972A1, “CD38 MODULATORS AND METHODS OF USE THEREOF” (Cytokinetics, Inc., priority 2021, published 2023).

Assay [1] deals with T1, human CD38 (Homo sapiens, UniProt P28907).
T1 sequence (P28907 1-300): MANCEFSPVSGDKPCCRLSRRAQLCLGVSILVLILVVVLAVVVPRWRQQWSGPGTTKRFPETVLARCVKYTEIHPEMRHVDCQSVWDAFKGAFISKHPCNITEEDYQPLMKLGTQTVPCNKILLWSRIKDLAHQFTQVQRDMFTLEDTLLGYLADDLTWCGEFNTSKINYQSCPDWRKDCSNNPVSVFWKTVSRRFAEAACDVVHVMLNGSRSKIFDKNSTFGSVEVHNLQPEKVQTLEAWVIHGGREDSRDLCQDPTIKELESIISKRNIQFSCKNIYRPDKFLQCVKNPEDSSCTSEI
Briefly: human recombinant CD38 enzyme assay (hydrolysis of NAD+). The conditions noted are these: human recombinant CD38, 0.4 nM enzyme, 62.5 μM NAD+; read-out: hCD38 BioChem IC50. The class given is biochemical. Put shortly:
(§1)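 Residual substrate after a one-hour room-temperature incubation of recombinant CD38 with NAD+ and test compound is measured by an ADH/diaphorase coupled resorufin signal (540 nm excitation, 590 nm emission); reduced NAD+ consumption reflects inhibition.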

In assay [2] the target is T2, mouse CD38 (Mus musculus, UniProt P56528).
T2 sequence (P56528 1-304): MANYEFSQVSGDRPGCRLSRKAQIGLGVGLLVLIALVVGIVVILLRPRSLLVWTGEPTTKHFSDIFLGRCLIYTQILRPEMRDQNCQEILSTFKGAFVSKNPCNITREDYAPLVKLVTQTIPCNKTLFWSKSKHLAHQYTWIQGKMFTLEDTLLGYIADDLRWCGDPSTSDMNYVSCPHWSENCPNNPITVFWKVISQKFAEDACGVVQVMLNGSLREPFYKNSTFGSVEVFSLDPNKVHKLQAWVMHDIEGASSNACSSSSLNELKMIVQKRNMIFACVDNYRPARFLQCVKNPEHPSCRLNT
As to the kind of experiment: mouse recombinant CD38 enzyme assay (hydrolysis of NAD+). The class given is biochemical. The conditions noted are these: read-out: mCD38 BioChem IC50. Put shortly:
as §1

Assay [3] addresses T3, endogenous CD38 in HL60 cells (Homo sapiens, UniProt P28907).
T3 construct: endogenous in cells; host or cells: HL60 (leukemic cells, treated with all-trans retinoic acid)
T3 sequence (P28907 1-300): T1 sequence (P28907 1-300)
As to the kind of experiment: cellular CD38 assay in HL60 cells (cellular NAD levels). The class given is cell-based. The conditions noted are these: all-trans retinoic acid, 24 hours, read-out: hCD38 HL60 ATRA NAD Cell Diaphorase IC50. Put shortly: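 Endogenous CD38 inhibition is inferred from NAD levels in HL60 cells after 24 h compound exposure at 20000 cells per well. A lytic cycling readout (0.2 U/mL diaphorase, 0.8 U/mL alcohol dehydrogenase, resazurin, FMN, ethanol, 0.2% Triton X-100, Tris/EDTA pH 8.4) ran 60 min at ambient temperature. Resorufin fluorescence was read at 540/590 nm.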

With `CO[C@H]1CC[C@H](NC(=O)c2cc(C)cc(-c3cncn3C)n2)CC1` [Compound 98, N-(4-methoxycyclohexyl)-4-methyl-6-(1-methyl-1H-imidazol-5-yl)picolinamide], the IC50 (in general, the point on the concentration scale where inhibition reaches its midpoint) was found to be 106 nM in assay [1], 10 nM in assay [2] and 4740 nM in assay [3].
On to `Cc1cc(C(=O)N[C@H]2CC[C@H](C(F)F)CC2)nc(-c2cncn2C)c1` [Compound 99, N-(4-(difluoromethyl)cyclohexyl)-4-methyl-6-(1-methyl-1H-imidazol-5-yl)picolinamide], for which the IC50 in assay [1] was 80 nM; in assay [2], 7 nM; in assay [3], 5130 nM.
With `CO[C@H]1CC[C@H](NC(=O)c2nc(-n3ccnc3)ccc2C)CC1` [Compound 100, 6-(1H-imidazol-1-yl)-N-(4-methoxycyclohexyl)-3-methylpicolinamide], the IC50 in assay [1] came out at 263 nM; in assay [2], 61 nM; in assay [3] it was 6200 nM.
In the same order, the values of `Cc1ccc(-n2ccnc2)nc1C(=O)N[C@H]1CC[C@H](C(F)F)CC1` [Compound 101, N-(4-(difluoromethyl)cyclohexyl)-6-(1H-imidazol-1-yl)-3-methylpicolinamide] are 210 nM, 42 nM and 8310 nM.
`C[C@H]1CC[C@H](NC(=O)c2cncc(-n3ccnc3)n2)CC1` [Compound 102, 6-(1H-imidazol-1-yl)-N-((1r,4r)-4-methylcyclohexyl)pyrazine-2-carboxamide]: the IC50 was 23 nM in assay [1], 7 nM in assay [2] and 1010 nM in assay [3].
In the same order, the values of `O=C(NC1CC2(C1)CC(F)(F)C2)c1cncc(-n2ccnc2)n1` [Compound 103, N-(6,6-difluorospiro[3.3]heptan-2-yl)-6-(1H-imidazol-1-yl)pyrazine-2-carboxamide] are 146 nM, 30 nM and 1620 nM.
On to `Cn1cncc1-c1cncc(C(=O)N[C@H]2CC[C@H](C)CC2)n1` [Compound 104, 6-(1-methyl-1H-imidazol-5-yl)-N-((1r,4r)-4-methylcyclohexyl)pyrazine-2-carboxamide], for which the IC50 in assay [1] is 24 nM; in assay [2] it was 10 nM; in assay [3], 1360 nM.
On to `Cn1cncc1-c1cncc(C(=O)NC2CC3(C2)CC(F)(F)C3)n1` [Compound 105, N-(6,6-difluorospiro[3.3]heptan-2-yl)-6-(1-methyl-1H-imidazol-5-yl)pyrazine-2-carboxamide], for which the IC50 in assay [1] was 80 nM; in assay [2] it was 24 nM; in assay [3], 1670 nM.
Consider `COC(=O)[C@H]1CC[C@H](NC(=O)c2ccnc(-n3ccnc3)n2)CC1` [Compound 106, methyl (1r,4r)-4-(2-(1H-imidazol-1-yl)pyrimidine-4-carboxamido)cyclohexane-1-carboxylate], for which the IC50 stood at 22 nM in assay [1], 9 nM in assay [2] and 1800 nM in assay [3].
For `COC(=O)[C@H]1CC[C@H](NC(=O)c2ccnc(-c3cncn3C)n2)CC1` [Compound 107, methyl (1r,4r)-4-(2-(1-methyl-1H-imidazol-5-yl)pyrimidine-4-carboxamido)cyclohexane-1-carboxylate], the IC50 in assay [1] was 9 nM; in assay [2], 2 nM; in assay [3], 1290 nM.
In the same order, the values of `O=C(Nc1ccc(C(F)F)nc1)c1cc(C2CC2)nc(-c2cncs2)n1` [Compound 110, 6-cyclopropyl-N-(6-(difluoromethyl)pyridin-3-yl)-2-(thiazol-5-yl)pyrimidine-4-carboxamide] are 108 nM, 20 nM and 2550 nM.
As for `CO[C@H]1CC[C@H](NC(=O)c2cc(C(F)(F)F)nc(-n3ccnc3)n2)CC1` [Compound 111, 2-(1H-imidazol-1-yl)-N-((1r,4r)-4-methoxycyclohexyl)-6-(trifluoromethyl)pyrimidine-4-carboxamide], the 50% inhibitory concentration (IC50) turned out to be 129 nM in assay [1], 38 nM in assay [2] and 5490 nM in assay [3].
`O=C(Nc1ccc(C(F)F)nc1)c1ccnc(-c2cncs2)n1` [Compound 114, N-(6-(difluoromethyl)pyridin-3-yl)-2-(thiazol-5-yl)pyrimidine-4-carboxamide]: the IC50 in assay [1] came out at 173 nM; in assay [2], 150 nM; in assay [3], 4330 nM.
In the same order, the values of `O=C(Nc1ccc(C(F)F)nc1)c1cc(C(F)(F)F)nc(-c2cncs2)n1` [Compound 116, N-(6-(difluoromethyl)pyridin-3-yl)-2-(thiazol-5-yl)-6-(trifluoromethyl)pyrimidine-4-carboxamide] are 507 nM, 185 nM and 8160 nM.
In the same order, the values of `Cc1cc(C(=O)Nc2ccc(C(F)(F)F)nc2)nc(-n2ccnc2)n1` [Compound 117, 2-(1H-imidazol-1-yl)-6-methyl-N-(6-(trifluoromethyl)pyridin-3-yl)pyrimidine-4-carboxamide] are 4 nM, 1 nM and 350 nM.
In the same order, the values of `CO[C@H]1CC[C@H](NC(=O)c2cc(C)nc(-n3ccnc3)n2)CC1` [Compound 118, 2-(1H-imidazol-1-yl)-N-((1r,4r)-4-methoxycyclohexyl)-6-methylpyrimidine-4-carboxamide] are 17 nM, 3 nM and 1620 nM.
Regarding `Cc1cc(C(=O)N[C@H]2CC[C@H](C)CC2)nc(-n2ccnc2)n1` [Compound 119, 2-(1H-imidazol-1-yl)-6-methyl-N-((1r,4r)-4-methylcyclohexyl)pyrimidine-4-carboxamide], the IC50 in assay [1] was 10 nM; in assay [2], 1 nM; in assay [3], 1580 nM.
In the case of `Cc1cc(C(=O)N[C@H]2CC[C@H](C(F)F)CC2)nc(-n2ccnc2)n1` [Compound 120, N-((1r,4r)-4-(difluoromethyl)cyclohexyl)-2-(1H-imidazol-1-yl)-6-methylpyrimidine-4-carboxamide], the IC50 in assay [1] was found to be 10 nM; in assay [2] it was 2 nM; in assay [3], 1130 nM.
In the case of `CO[C@H]1CC[C@H](NC(=O)c2cc(C)nc(-c3cncn3C)n2)CC1` [Compound 121, N-((1r,4r)-4-methoxycyclohexyl)-6-methyl-2-(1-methyl-1H-imidazol-5-yl)pyrimidine-4-carboxamide], the figures for the IC50 in assay [1], in assay [2] and in assay [3] were 14 nM, 1 nM and 1050 nM, respectively.
In the same order, the values of `Cc1cc(C(=O)N[C@H]2CC[C@H](C(F)F)CC2)nc(-c2cncn2C)n1` [Compound 122, N-((1r,4r)-4-(difluoromethyl)cyclohexyl)-6-methyl-2-(1-methyl-1H-imidazol-5-yl)pyrimidine-4-carboxamide] are 10 nM, 1 nM and 1010 nM.
Regarding `Cc1cc(C(=O)N[C@H]2CC[C@H](C)CC2)nc(-c2cncn2C)n1` [Compound 123, 6-methyl-2-(1-methyl-1H-imidazol-5-yl)-N-((1r,4r)-4-methylcyclohexyl)pyrimidine-4-carboxamide], the IC50 in assay [1] came to 10 nM; in assay [2], 1 nM; in assay [3], 952 nM.
Regarding `Cc1cc(C(=O)NC2CC3(C2)CC(F)(F)C3)nc(-c2cncn2C)n1` [Compound 124, N-(6,6-difluorospiro[3.3]heptan-2-yl)-6-methyl-2-(1-methyl-1H-imidazol-5-yl)pyrimidine-4-carboxamide], the values for the IC50 in assay [1], in assay [2] and in assay [3] were 17 nM, 1 nM and 1400 nM, respectively.
As for `COc1cc(C(=O)N[C@H]2CC[C@H](OC)CC2)nc(-n2ccnc2)n1` [Compound 125, 2-(1H-imidazol-1-yl)-6-methoxy-N-((1r,4r)-4-methoxycyclohexyl)pyrimidine-4-carboxamide], the IC50 came out at 19 nM in assay [1], 4 nM in assay [2] and 2480 nM in assay [3].
Consider `COc1cc(C(=O)Nc2ccc(C(F)F)nc2)nc(-n2ccnc2)n1` [Compound 127, N-(6-(difluoromethyl)pyridin-3-yl)-2-(1H-imidazol-1-yl)-6-methoxypyrimidine-4-carboxamide], for which the IC50 was 2 nM in assay [1], 2 nM in assay [2] and 335 nM in assay [3].
Turning to `COc1cc(C(=O)N[C@H]2CC[C@H](OC)CC2)nc(-c2cncn2C)n1` [Compound 128, 6-methoxy-N-((1r,4r)-4-methoxycyclohexyl)-2-(1-methyl-1H-imidazol-5-yl)pyrimidine-4-carboxamide], the IC50 is 9 nM in assay [1], 1 nM in assay [2] and 928 nM in assay [3].
